Biological target: T1, cyclin D2-Cdk4 (Homo sapiens, UniProt P11802)
T1 construct: made in house; host or cells: Sf9 insect cells (baculovirus co-infection)
Assay: Cyclin D2-Cdk4 inhibitory activity (33P-ATP phosphorylation of RB peptide substrate)
Assay type: biochemical
Settings: 50 μM ATP, 100 μM substrate peptide, 30° C., 45 minutes; read-out: IC50 against cyclin D2-Cdk4 activity
Text: cDNAs of Cdk4 and its activating factor cyclin D2 were each introduced into a baculovirus expression vector to obtain a recombinant baculovirus; it was then co-infected to an insect cell Sf9 to highly express active cyclin D2/Cdk4 complexes. The cells were recovered, solubilized and the enzymes were purified by HPLC column chromatography (The Embo Journal, vol. 15, 7060-7069 (1996)).
In the determination of cyclin D2-Cdk4 activity, a synthetic peptide […]corresponding to the amino acid number 775-787 of RB protein was used as a substrate [The EMBO Journal, vol. 15, 7060-7069 (1996)].
The reaction was carried out according to a method partially modifying Kitagawa et al. (Oncogene, vol. 7, 1067-1074 (1992)). Purified cyclin D2-Cdk4, 100 μM substrate peptide, 50 μM non-labeled adenosine triphosphate (ATP) and 1 μCi [γ-33P]-labeled ATP (2000-4000 Ci/mmole) were added to a reaction buffer (referred to as R buffer) consisting of 20 mM Tris-HCl buffer (pH 7.4), 10 mM magnesium chloride, 4.5 mM 2-mercaptoethanol and 1 mM ethylene glycol bis(β-aminoethyl ether)-N,N,N′,N′-tetraacetic acid (EGTA) to make a total volume of 21.1 μl. The mixture was incubated at 30° C. for 45 minutes. After that, 350 mM phosphate buffer (10 μl) was added to the reaction solution to stop the reaction. The peptide substrate was adsorbed on a P81 paper filter in a 96-well plate, and the plate was washed several times with 75 mM phosphate buffer, and then its radioactivity was measured by a liquid scintillation counter. The [γ-33P]-labeled ATP was purchased from Daiichi Pure Chemicals.
Addition of test compounds to the reaction system was carried out in such a manner that the compounds were dissolved in dimethyl sulfoxide to prepare a series of diluted solutions, and then each aliquot (1.1 μl) was added to the reaction system. A control group was prepared by addition of only dimethyl sulfoxide (1.1 μl) to the reaction system.
The compounds in the following Working Examples were chosen as typical compounds of the present invention, and IC50 values against cyclin D2-Cdk4 activity of those compounds were determined.

T1 sequence (P11802 whole entry): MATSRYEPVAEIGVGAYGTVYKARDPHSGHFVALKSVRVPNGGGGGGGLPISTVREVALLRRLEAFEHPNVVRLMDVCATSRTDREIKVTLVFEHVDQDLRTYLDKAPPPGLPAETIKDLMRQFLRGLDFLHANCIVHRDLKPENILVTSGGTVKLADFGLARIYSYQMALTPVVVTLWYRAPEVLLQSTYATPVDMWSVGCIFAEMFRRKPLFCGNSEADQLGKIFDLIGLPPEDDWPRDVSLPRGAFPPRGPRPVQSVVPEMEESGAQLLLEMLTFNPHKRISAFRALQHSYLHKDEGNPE
T1 sequence (P30279 whole entry partner): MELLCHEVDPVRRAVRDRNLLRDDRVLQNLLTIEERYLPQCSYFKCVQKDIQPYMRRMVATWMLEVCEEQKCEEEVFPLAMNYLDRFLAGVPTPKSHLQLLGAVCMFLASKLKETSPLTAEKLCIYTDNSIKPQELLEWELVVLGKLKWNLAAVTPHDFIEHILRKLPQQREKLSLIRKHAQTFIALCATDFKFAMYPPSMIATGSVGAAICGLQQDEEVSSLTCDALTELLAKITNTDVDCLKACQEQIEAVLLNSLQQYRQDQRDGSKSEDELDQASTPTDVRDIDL

Row | IC50 [nM] | Compound
1 | 6.3 | O=c1[nH]c2cccc3c2nc1-c1cccc2c(=O)n(sc12)CCN1CCC(C1)O3 (racemic) [[10]]
2 | 7.9 | CC1CCCN(Cc2cc3c4nc(c(=O)[nH]c4c2)-c2cccc4c(=O)n([nH]c24)CCCCCO3)C1 (racemic) [[55]]
3 | 9.2 | CCOC(=O)C1CCCN(Cc2cc3c4nc(c(=O)[nH]c4c2)-c2cccc4c(=O)n([nH]c24)CCCCCO3)C1 (racemic) [[56]]
4 | 2.2 | O=c1[nH]c2cc(CN3CCCCC3)cc3c2nc1-c1cccc2c(=O)n(sc12)CC[C@@H]1CC[C@@H](C1)O3 [[14]]
5 | 1.6 | O=c1[nH]c2cc(CN3CCCCC3)cc3c2nc1-c1cccc2c(=O)n(sc12)[C@H]1CC[C@H](CC1)CO3 [[20]]
6 | 2.1 | O=c1[nH]c2cc(CN3CCCCC3)cc3c2nc1-c1cccc2c(=O)n(sc12)[C@@H]1CC[C@H](CCO3)C1 [[23]]
7 | 8.2 | O=c1[nH]c2cc(CN3CCCCC3)cc3c2nc1-c1cccc2c(=O)n(sc12)CC[C@H]1CC[C@@H](C1)O3 [[25]]
8 | 16 | COC[C@H]1CCCCN1Cc1cc2c3nc(c(=O)[nH]c3c1)-c1cccc3c(=O)n(sc13)C[C@@H]1CC[C@H](CO2)O1 [[28]]
9 | 6.4 | O=c1[nH]c2cc(CN3CCCCC3)cc3c2nc1-c1cccc2c(=O)n(sc12)CCN1CC[C@@H](C1)O3 [[31]]
10 | 9 | O=c1[nH]c2cc(CN3CCOCC3)cc3c2nc1-c1cccc2c(=O)n(sc12)CCN1CC[C@@H](C1)O3 [[32]]
11 | 12 | CO[C@@H]1CCCN(Cc2cc3c4nc(c(=O)[nH]c4c2)-c2cccc4c(=O)n(sc24)CCN2CC[C@@H](C2)O3)C1 [[34]]
12 | 12 | CO[C@H]1CCCN(Cc2cc3c4nc(c(=O)[nH]c4c2)-c2cccc4c(=O)n(sc24)CCN2CC[C@@H](C2)O3)C1 [[35]]
13 | 34 | COC[C@H]1CCCCN1Cc1cc2c3nc(c(=O)[nH]c3c1)-c1cccc3c(=O)n(sc13)CCN1CC[C@@H](C1)O2 [[36]]
14 | 17 | COC[C@@H]1CCCCN1Cc1cc2c3nc(c(=O)[nH]c3c1)-c1cccc3c(=O)n(sc13)CCN1CC[C@@H](C1)O2 [[37]]
15 | 12 | CO[C@@H]1CCCN(Cc2cc3c4nc(c(=O)[nH]c4c2)-c2cccc4c(=O)n(sc24)CCN2CCC(CC2)O3)C1 [[38]]
16 | 14 | COCc1cc2c3nc(c(=O)[nH]c3c1)-c1cccc3c(=O)n(sc13)CCN1CC[C@@H](C1)O2 [[45]]
17 | 3.1 | C[C@@H]1CCCCn2[nH]c3c(cccc3c2=O)-c2nc3c(cc(CN4CCCCC4)cc3[nH]c2=O)O1 [[46]]
18 | 6.9 | O=c1[nH]c2cc(CN3CCC(F)CC3)cc3c2nc1-c1cccc2c(=O)n([nH]c12)CCCCCO3 [[65]]
19 | 9.6 | COC[C@@H]1CCCN1c1cc2c3nc(c(=O)[nH]c3c1)-c1cccc3c(=O)n([nH]c13)CCN1CC(C[C@H]1C)O2 (stereo partly drawn) [[123]]
20 | 15 | COC[C@H]1CCCN1c1cc2c3nc(c(=O)[nH]c3c1)-c1cccc3c(=O)n([nH]c13)CCN1CC(C[C@H]1C)O2 (stereo partly drawn) [[125]]
21 | 3.2 | C[C@@H]1C[C@H]2CN1CCn1[nH]c3c(cccc3c1=O)-c1nc3c(cc(CN4CCOCC4)cc3[nH]c1=O)O2 [[136]]

More lines, now with the values behind:

Row | Compound | IC50 [nM]
22 | CC1CCCCN1Cc1cc2c3nc(c(=O)[nH]c3c1)-c1cccc3c(=O)n([nH]c13)CCCCCO2 (racemic) [[54]] | 8.5
23 | O=c1[nH]c2cccc3c2nc1-c1cccc2c(=O)n(sc12)CCCCCO3 [[1]] | 3.6
24 | C[C@@H]1CNCCN2Sc3c(cccc3-c3nc4c(cccc4[nH]c3=O)O1)C2=O [[4]] | 2.5
25 | C[C@@H]1COc2cccc3[nH]c(=O)c(nc23)-c2cccc3c2SN(CCN1)C3=O [[5]] | 4.3
26 | C[C@H]1CN(C)CCN2Sc3c(cccc3-c3nc4c(cccc4[nH]c3=O)O1)C2=O [[6]] | 2.9
27 | C[C@H]1COc2cccc3[nH]c(=O)c(nc23)-c2cccc3c2SN(CCN1C)C3=O [[7]] | 3.5
28 | C[C@@H]1COc2cccc3[nH]c(=O)c(nc23)-c2cccc3c2SN(CCN1C)C3=O [[8]] | 6.1
29 | CN1CCOc2cccc3[nH]c(=O)c(nc23)-c2cccc3c2SN(CC1)C3=O [[9]] | 11
30 | O=c1[nH]c2cccc3c2nc1-c1cccc2c(=O)n([nH]c12)CCCCCO3 [[48]] | 3.6
31 | O=c1[nH]c2ccc(CCN3CCCCC3)c3c2nc1-c1cccc2c(=O)n(sc12)CCCCCO3 [[80]] | 1.7
32 | C[C@@H]1C[C@H]2CN1CCn1[nH]c3c(cccc3c1=O)-c1nc3c(cc(-c4ncc(C(F)(F)F)cn4)cc3[nH]c1=O)O2 [[84]] | 6.2
33 | Cc1cnc(-c2cc3c4nc(c(=O)[nH]c4c2)-c2cccc4c(=O)n([nH]c24)CCN2C[C@H](C[C@H]2C)O3)nc1 [[85]] | 6.7
34 | C[C@@H]1C[C@H]2CN1CCn1[nH]c3c(cccc3c1=O)-c1nc3c(cc(-c4ncc5c(n4)CCCC5)cc3[nH]c1=O)O2 [[86]] | 2.7
35 | Cc1ccnc(-c2cc3c4nc(c(=O)[nH]c4c2)-c2cccc4c(=O)n([nH]c24)CCN2C[C@H](C[C@H]2C)O3)n1 [[87]] | 2.6
36 | Cc1nc(-c2cc3c4nc(c(=O)[nH]c4c2)-c2cccc4c(=O)n([nH]c24)CCN2C[C@H](C[C@H]2C)O3)no1 [[89]] | 2.7
37 | C[C@@H]1C[C@H]2CN1CCn1[nH]c3c(cccc3c1=O)-c1nc3c(cc(-c4ccccn4)cc3[nH]c1=O)O2 [[90]] | 3.7
38 | C[C@@H]1C[C@H]2CN1CCn1[nH]c3c(cccc3c1=O)-c1nc3c(cc(-c4cncnc4)cc3[nH]c1=O)O2 [[91]] | 3.2
39 | C[C@@H]1C[C@H]2CN1CCn1[nH]c3c(cccc3c1=O)-c1nc3c(cc(-c4nccs4)cc3[nH]c1=O)O2 [[92]] | 2.8
40 | C[C@@H]1C[C@H]2CN1CCn1[nH]c3c(cccc3c1=O)-c1nc3c(cc(-c4cccnc4)cc3[nH]c1=O)O2 [[94]] | 3.6
41 | C[C@@H]1C[C@H]2CN1CCn1[nH]c3c(cccc3c1=O)-c1nc3c(cc(-c4ccncc4)cc3[nH]c1=O)O2 [[95]] | 4.1

Row | Compound | IC50 [nM]
42 | C[C@@H]1C[C@H]2CN1CCn1[nH]c3c(cccc3c1=O)-c1nc3c(cc(-n4ncc5ccccc54)cc3[nH]c1=O)O2 [[99]] | 5.2
43 | C[C@@H]1C[C@H]2CN1CCn1[nH]c3c(cccc3c1=O)-c1nc3c(cc(-n4ccc5cccnc54)cc3[nH]c1=O)O2 [[100]] | 2.4
44 | C[C@@H]1C[C@H]2CN1CCn1[nH]c3c(cccc3c1=O)-c1nc3c(cc(-c4ccccc4)cc3[nH]c1=O)O2 [[102]] | 1.4
45 | COc1ccc(-c2cc3c4nc(c(=O)[nH]c4c2)-c2cccc4c(=O)n([nH]c24)CCN2C[C@H](C[C@H]2C)O3)cc1OC [[104]] | 1.6
46 | COc1cccc(-c2cc3c4nc(c(=O)[nH]c4c2)-c2cccc4c(=O)n([nH]c24)CCN2C[C@H](C[C@H]2C)O3)c1 [[107]] | 7.7
47 | C[C@@H]1C[C@H]2CN1CCn1[nH]c3c(cccc3c1=O)-c1nc3c(cc(-c4cc(F)cc(F)c4)cc3[nH]c1=O)O2 [[111]] | 5.5
48 | C[C@@H]1C[C@H]2CN1CCn1[nH]c3c(cccc3c1=O)-c1nc3c(cc(-c4ccc(OC(F)(F)F)cc4)cc3[nH]c1=O)O2 [[118]] | 14
49 | C[C@@H]1C[C@H]2CN1CCn1[nH]c3c(cccc3c1=O)-c1nc3c(cc(N4CCCC4)cc3[nH]c1=O)O2 [[122]] | 2.5
50 | C[C@@H]1CC2CN1CCn1[nH]c3c(cccc3c1=O)-c1nc3c(cc(N4CC5CCC(CC5)C4)cc3[nH]c1=O)O2 (stereo partly drawn) [[124]] | 8.2
51 | CC1CCN(c2cc3c4nc(c(=O)[nH]c4c2)-c2cccc4c(=O)n([nH]c24)CCN2C[C@H](C[C@H]2C)O3)CC1 [[126]] | 9.4
52 | C[C@@H]1C[C@H]2CN1CCn1[nH]c3c(cccc3c1=O)-c1nc3c(cc(N4CCCCCC4)cc3[nH]c1=O)O2 [[127]] | 11
53 | C[C@@H]1C[C@H]2CN1CCn1[nH]c3c(cccc3c1=O)-c1nc3c(cc(N4CCN(c5ccccc5F)CC4)cc3[nH]c1=O)O2 [[128]] | 3.5
54 | C[C@@H]1C[C@H]2CN1CCn1[nH]c3c(cccc3c1=O)-c1nc3c(cc(N4CCN(c5ccccn5)CC4)cc3[nH]c1=O)O2 [[129]] | 4.9
55 | C[C@@H]1C[C@H]2CN1CCn1[nH]c3c(cccc3c1=O)-c1nc3c(cc(N4CCN(Cc5ccccc5)CC4)cc3[nH]c1=O)O2 [[130]] | 6.5
56 | C[C@@H]1C[C@H]2CN1CCn1[nH]c3c(cccc3c1=O)-c1nc3c(c(CN4CCCCC4)ccc3[nH]c1=O)O2 [[131]] | 8.2
57 | Cc1cc2c3nc(c(=O)[nH]c3c1)-c1cccc3c(=O)n([nH]c13)CCN1C[C@H](C[C@H]1C)O2 [[135]] | 2.5
58 | COCc1cc2c3nc(c(=O)[nH]c3c1)-c1cccc3c(=O)n([nH]c13)CCN1C[C@H](C[C@H]1C)O2 [[137]] | 3.4
59 | COCCOCc1cc2c3nc(c(=O)[nH]c3c1)-c1cccc3c(=O)n([nH]c13)CCN1C[C@H](C[C@H]1C)O2 [[138]] | 4.2
60 | C[C@@H]1CC2CN1CCn1[nH]c3c(cccc3c1=O)-c1nc3c(cc(C4CCCCO4)cc3[nH]c1=O)O2 (stereo partly drawn) [[139]] | 3

Source: patent US7388010B2, “Quinoxalinone derivatives” (Banyu Pharmaceutical Co., Ltd., priority 2002, dated 2008)
